The test system of experiment [1] is MEN1 M327I/WT MV4;11 cell lines. Description: dose-response assay, viable cell counts by flow cytometry. It is filed as cell-based, human. The note with it: MV4;11 MEN1 M327I/WT. As to the method: MV4;11 and OCI-AML3 cell lines were passaged 24 h prior to nucleofection. The guide RNA (150 μmol) (sequence: 5′-[…]-3′) was added to Alt-R S.p. HiFi Cas9 nuclease (Integrated DNA Technologies) (125 μmol) followed by an incubation at room temperature (RT) for 20 min to allow formation of ribonucleoprotein (RNP) complexes. 2×10^5 cells were sedimented at 200 g for 10 min at RT, washed with PBS and resuspended in the SG Cell Line Nucleofector™ Solution (Lonza). Cells, Alt-R™ Cas9 Electroporation Enhancer (Lonza) (120 μmol) and the HDR donor oligonucleotide containing the MEN1-M327I mutation as well as a silent mutation at the protospacer adjacent motif (PAM) site (120 μmol) (sequence:5′-[…]-3′) were added to the RNP complex. For wildtype (WT) control, phosphate buffered saline (PBS) (Gibco™, Fisher Scientific) was added to the resuspended cells. Nucleofection was performed using a 16-well 20 μl Nucleocuvette™ stripe (Lonza) in a 4D-Nucleofector™ X Unit (Lonza) (program FF-100). Cells were incubated overnight in RPMI-1640+10% FCS+1% P/S containing 1 μM Alt-R™ HDR enhancer V2 (Lonza) (or DMSO for WT control). The following day, the medium was replaced by RPMI-1640+10% FBS+1% P/S. Single clones were selected in methylcellulose (MethoCult™ M3234, Stemcell™ Technologies) supplemented with 10% RPMI-1640, 10% FBS, 1% P/S and 25 nM SNDX-5613 (or DMSO for WT control), starting 3 days after nucleofection, and expanded in RPMI-1640+10% FCS+1% P/S supplemented with 25 nM SNDX-5613 (or DMSO for WT control). For the in vitro clonal selection assay of bulk nucleofected cells over time, 5×10^3 cells (3 replicates per condition) were seeded in RPMI-1640+10% FBS+1% P/S supplemented with 50 nM SNDX-5613 (or DMSO for WT control) 3 days after nucleofection. Cells were replated in fresh medium+drug every 3 days and viable cells were counted using the LSRFortessa™ (BD Biosciences) flow cytometer. Cumulative cell growth was calculated over 28 days. At each timepoint, cell pellets were frozen and genomic DNA was extracted subsequently using the DNeasy Blood and Tissue Kit™ (QIAGEN). Digital droplet-based PCR was performed from the genomic DNA to assess editing efficiency in the bulk cells over time. To analyze HDR efficiency in single cell clones, genomic DNA was PCR amplified using the Q5 High-Fidelity 2× Master Mix™ (New England BioLabs) and primers (forward: 5′-[…]-3′; reverse: 5′-[…]-3′), and the resulting 641 bp fragment containing the Cas9 cut site was gel-purified using the QIAquick Gel Extraction Kit™ (QIAGEN). Sanger sequencing was used to analyze HDR efficiency (primer 5′-[…]-3′).
(§1) To determine Menin-inhibitor responses of MOLM13, MV4;11 or OCI-AML3 cell lines expressing MEN1 mutants, 3×10^3 cells were plated per well in a non-tissue culture treated 96-well plate. The Menin-inhibitors were titrated on these cells in the following dose-range: DMSO, 3.9 nM, 7.813 nM, 15.625 nM, […], 62.5 nM, 125 nM, 250 nM, 500 nM, 1000 nM. Cells were treated in triplicates on each plate and the experiment was repeated 4 times. After 6 days, cells were split 1:7 and counts of viable cells in each well were determined after 10 d of treatment by flow cytometry (LSRFortessa™ with High-throughput sampler (HTS), BD Biosciences). Relative cell counts were calculated as % of DMSO control. The average of each triplicate was calculated and the mean of all replicates was plotted. Error bars represent the standard error of means (SEM).
On the technique in general: In flow cytometry, cells or beads pass a laser one at a time.

The test system of experiment [2] is unedited MV4;11 and OCI-AML3 cells. In words: in vitro clonal selection assay, growth of bulk cell populations. It is filed as cell-based, human. The settings on record: 50 nM. As to the method:
(§2) MV4;11 and OCI-AML3 cell lines were passaged 24 h prior to nucleofection. The guide RNA (150 μmol) (sequence: 5′-[…]-3′) was added to Alt-R S.p. HiFi Cas9 nuclease (Integrated DNA Technologies) (125 μmol) followed by an incubation at room temperature (RT) for 20 min to allow formation of ribonucleoprotein (RNP) complexes. 2×10^5 cells were sedimented at 200 g for 10 min at RT, washed with PBS and resuspended in the SG Cell Line Nucleofector™ Solution (Lonza). Cells, Alt-R™ Cas9 Electroporation Enhancer (Lonza) (120 μmol) and the HDR donor oligonucleotide containing the MEN1-M327I mutation as well as a silent mutation at the protospacer adjacent motif (PAM) site (120 μmol) (sequence:5′-[…]-3′) were added to the RNP complex. For wildtype (WT) control, phosphate buffered saline (PBS) (Gibco™, Fisher Scientific) was added to the resuspended cells. Nucleofection was performed using a 16-well 20 μl Nucleocuvette™ stripe (Lonza) in a 4D-Nucleofector™ X Unit (Lonza) (program FF-100). Cells were incubated overnight in RPMI-1640+10% FCS+1% P/S containing 1 μM Alt-R™ HDR enhancer V2 (Lonza) (or DMSO for WT control). […] Cells were replated in fresh medium+drug every 3 days and viable cells were counted using the LSRFortessa™ (BD Biosciences) flow cytometer. Cumulative cell growth was calculated over 28 days. […]

In experiment [3] the test system is CRISPR-Cas9 M327I-edited MV4;11 and OCI-AML3 cells. Described as above. It is filed as cell-based, human. The settings on record: 50 nM. As to the method: as §2
Experiment [4] relates to MEN1-wild-type MV4;11 cells. Description: dose-response assay, viable cell counts by flow cytometry. It is filed as cell-based, human. The note with it: MV4;11 without the mutation, 10 d of treatment. As to the method: as §1
In experiment [5] the target is T1, M327I and T349M-mutant Menin (Homo sapiens, UniProt O00255, M322I).
T1 sequence (O00255 1-615 isoform O00255-1 M327I): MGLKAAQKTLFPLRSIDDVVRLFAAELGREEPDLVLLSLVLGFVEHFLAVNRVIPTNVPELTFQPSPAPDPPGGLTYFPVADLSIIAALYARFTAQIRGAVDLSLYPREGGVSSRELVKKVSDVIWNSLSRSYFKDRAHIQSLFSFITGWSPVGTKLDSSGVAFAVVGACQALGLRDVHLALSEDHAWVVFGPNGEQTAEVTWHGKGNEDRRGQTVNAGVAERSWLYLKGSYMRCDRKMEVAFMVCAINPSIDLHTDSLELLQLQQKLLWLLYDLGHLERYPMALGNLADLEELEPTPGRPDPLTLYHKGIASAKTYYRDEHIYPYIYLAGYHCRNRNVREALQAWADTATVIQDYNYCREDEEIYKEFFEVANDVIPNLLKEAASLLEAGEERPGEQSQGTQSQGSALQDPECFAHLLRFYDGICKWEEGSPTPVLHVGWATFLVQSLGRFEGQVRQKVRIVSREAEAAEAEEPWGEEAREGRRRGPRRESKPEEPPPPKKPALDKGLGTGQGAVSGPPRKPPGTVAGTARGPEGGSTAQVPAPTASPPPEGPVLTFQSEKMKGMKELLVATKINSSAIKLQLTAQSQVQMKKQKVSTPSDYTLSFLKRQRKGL
In words: isothermal titration calorimetry (ITC). It is filed as binding. The note with it: MEN1-M327I compared to MEN1-WT. As to the method: (§3) All calorimetric experiments were carried out in ITC buffer (25 mM Hepes (pH 7.5), 200 mM NaCl, 1.0 mM TCEP) at 25° C. using an Affinity ITC from TA Instruments (New Castle, DE) equipped with autosampler. SNDX-5613 was dissolved in DMSO and diluted with the ITC buffer to final concentrations (50-200 μM. 1% DMSO). Protein sample was adjusted to contain 1% DMSO final concentration. The calorimetric cell, containing buffer or Menin (10 μM WT Menin, 5 μM M327I Menin, or 10 μM T349M Menin) was titrated by injecting 2.5 μl of SNDX-5613 solution with the concentration of 100 μM, 50 μM or 200 μM, respectively, 24 times with stirring speed at 75 rpm. The resulting isotherms were subtracted against buffer runs and fitted with a single-site model to yield thermodynamic parameters of ΔH and ΔS, stoichiometry, and KD using NanoAnalyze software (TA Instruments).

Experiment [6] has as its system M327I and T349M-mutant Menin. In words: isothermal titration calorimetry (ITC). It is filed as binding, human. The settings on record: mutant vs WT Menin. As to the method:
as §3

For the compound `CCN(C(=O)c1cc(F)ccc1Oc1cncnc1N1CC2(CCN(C[C@H]3CC[C@H](NS(=O)(=O)CC)CC3)CC2)C1)C(C)C` [SNDX-5613, revumenib], in experiment [1], the “increase of IC50 compared to MEN1-wild-type cells” value came to 16 fold. The cell growth result in experiment [2] was “stopped dividing shortly after exposure”; in experiment [3] it was “continued growing beyond 28 days”. Further, the IC50 result in experiment [4] is “low nanomolar range”. Also, in experiment [5], the “reduction in affinity, isothermal calorimetry” value is reported as “over 50 fold”. Besides, the “change in mutant binding affinities (Kd) determined by isothermal calorimetry” value in experiment [6] is greater than 50 fold.

The values above are taken from patent US20260185163A1, “MEN1 MUTATIONS AND USES THEREOF” (DANA-FARBER CANCER INSTITUTE, INC., priority 2022, published 2026).
